Target: Galectin-3 (Homo sapiens, UniProt P17931)
Assay: Biological Assay: ASSAY BUFFER Composition: 25 mM HEPES, 100 mM NaCl, 0.005% Tween 20, 0.05% BSA prepared in sterile water (all reagents from Sigma). PROTOCOL: The Gal-3 assays were performed in 384 white Opti plates in three replicates at room temperature with gentle shaking at 250-300 rpm From the original stocks, […] working stock concentrations of His-tagged recombinant human Gal-3 (hGal-3) and that of B-ASF were prepared. From the working stock, 20 μl of hGal-3 (15 nM) and 20 μl B-ASF (15 nM) were added to the plates. In Negative Control, only hGal-3 was added. A concentration range of 50× working stocks were prepared for the compounds in 100% DMSO. Aliquots of 1 uL of the compounds were added to the wells and pre-incubated with 20 μl hGal-3 per well for 30 minutes Then 20 μl B-ASF were added and incubated for another 1 hour. To detect the signal, 5 μ(final conc. of 1.0 nM) terbium labelled Anti-His antibody was added and incubated for 30 min followed by adding 5 μ(final conc. of 20 nM) Streptavidin d2 and incubation for another 1 hour. The assay signal was detected using HTRF screen protocol (Excitation wavelength=340 nm, emission wavelength=615 nm/665 nm) on Envision 2104 Multilabel Reader. Data analysed using Toolset and Curve Master. Results are reported in the experimental section (IC50 in μM).

Sequence of Galectin-3 (P17931 whole entry): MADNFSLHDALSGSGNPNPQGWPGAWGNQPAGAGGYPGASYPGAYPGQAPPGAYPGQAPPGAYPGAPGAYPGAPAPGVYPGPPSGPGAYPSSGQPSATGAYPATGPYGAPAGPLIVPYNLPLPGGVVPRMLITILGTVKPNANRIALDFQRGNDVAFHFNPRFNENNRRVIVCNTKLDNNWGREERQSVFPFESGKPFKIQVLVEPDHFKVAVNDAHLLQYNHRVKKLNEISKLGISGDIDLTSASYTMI

IC50 [nM] | Structure (SMILES)
200 | NC(=O)CO[C@@H]1[C@@H](n2cc(-c3cc(F)c(F)c(F)c3)nn2)[C@@H](O)[C@@H](CO)O[C@@H]1Sc1ccc(Cl)c(Cl)c1
224 | COCCO[C@@H]1[C@@H](n2cc(-c3cc(F)c(F)c(F)c3)nn2)[C@@H](O)[C@@H](CO)O[C@@H]1Sc1ccc(Cl)c(Cl)c1
